The term IC50 denotes the point on the concentration scale where inhibition reaches its midpoint.

SMILES strings stand for the structures.

One experiment deals with amyloid β production in transfected H4 (human neuroglioma) cells stably expressing APP constructs. The experiment can be described thus: In vitro cell-based assay of inhibitors of amyloid β production (ELISA). The settings on record: Homo sapiens, 16 h, transfected H4 cells stably expressing APP constructs; approximately 16 hours incubation; amyloid β in medium by ELISA; read-out: ACTIVITY (IC50, inhibition of amyloid β production). The procedure, abridged: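 Test agents are screened at 10-100 μM for about 16 hours on cells stably expressing wild-type or variant APP. Secreted Aβ is measured by ELISA and compared with control-treated cells.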
On the technique in general: ELISA stands for enzyme-linked immunosorbent assay.
As to `C[C@H](CCCS(=O)(=O)N(C)C)N(c1cc(Cl)ccc1F)S(=O)(=O)c1ccc(Cl)cc1` [Example 1202, 4-chloro-N-(5-chloro-2-fluorophenyl)-N-[4-[(dimethylamino)sulfonyl]-1(R)-methylbutyl]benzenesulfonamide], the concentration for half-maximal inhibition (IC50) is at most 25 nM.
The same measure, in the same setting: for `CNS(=O)(=O)CCC[C@@H](C)N(c1cc(Cl)ccc1F)S(=O)(=O)c1ccc(Cl)cc1` [Example 1203, 4-chloro-N-(5-chloro-2-fluorophenyl)-N-[4-[(methylamino)sulfonyl]-1(R)-methylbutyl]benzenesulfonamide] the value was at most 25 nM; for `C[C@H](CCCS(=O)(=O)N1CCCC1)N(c1cc(Cl)ccc1Cl)S(=O)(=O)c1ccc(Cl)cc1` [Example 1204, 4-chloro-N-[2,5-dichlorophenyl]-N-[4-[(1-pyrrolidinyl)sulfonyl]-1(R)-methylbutyl]benzenesulfonamide], at most 25 nM.
Same read-out and setting: for `C[C@H](CCCS(=O)(=O)N1CCCC1)N(c1cc(Cl)ccc1F)S(=O)(=O)c1ccc(Cl)cc1` [Example 1205, 4-chloro-N-(5-chloro-2-fluorophenyl)-N-[4-[(1-pyrrolidinyl)sulfonyl]-1(R)-methylbutyl]benzenesulfonamide] the value was at most 25 nM; for `C[C@H](CCCS(=O)(=O)N(C)C)N(c1cc(F)ccc1F)S(=O)(=O)c1ccc(Cl)cc1` [Example 1206, 4-chloro-N-[2,5-difluorophenyl]-N-[4-[(dimethylamino)sulfonyl]-1(R)-methylbutyl]benzenesulfonamide], at most 25 nM; for `CNS(=O)(=O)CCC[C@@H](C)N(c1cc(F)ccc1F)S(=O)(=O)c1ccc(Cl)cc1` [Example 1207, 4-chloro-N-[2,5-difluorophenyl]-N-[4-[(methylamino)sulfonyl]-1(R)-methylbutyl]benzenesulfonamide], at most 25 nM.
Consider `CCNS(=O)(=O)CCC[C@@H](C)N(c1cc(Cl)ccc1Cl)S(=O)(=O)c1ccc(Cl)cc1` [Example 1208, 4-chloro-N-[2,5-dichlorophenyl]-N-[4-[(ethylamino)sulfonyl]-1(R)-methylbutyl]benzenesulfonamide], for which the half-inhibitory concentration (IC50) was at most 25 nM.
Same read-out and setting: for `C[C@H](CCCS(=O)(=O)N1CCOCC1)N(c1cc(Cl)ccc1Cl)S(=O)(=O)c1ccc(Cl)cc1` [Example 1209, 4-chloro-N-[2,5-dichlorophenyl]-N-[4-[(4-morpholinyl)sulfonyl]-1(R)-methylbutyl]benzenesulfonamide] the value was at most 25 nM; for `C[C@H](CCCS(N)(=O)=O)N(c1cc(Cl)ccc1Cl)S(=O)(=O)c1ccc(Cl)cc1` [Example 1210, N-[4-(aminosulfonyl)-1(R)-methylbutyl]-4-chloro-N-(2,5-dichlorophenyl)benzenesulfonamide], at most 25 nM; for `C[C@H](CCCS(=O)(=O)N1CCSCC1)N(c1cc(Cl)ccc1Cl)S(=O)(=O)c1ccc(Cl)cc1` [Example 1211, 4-chloro-N-[2,5-dichlorophenyl]-N-[4-[(4-thiomorpholinyl)sulfonyl]-1(R)-methylbutyl]benzenesulfonamide], at most 25 nM.
Still for that read-out and setting: for `CC(C)N(C)S(=O)(=O)CCC[C@@H](C)N(c1cc(Cl)ccc1Cl)S(=O)(=O)c1ccc(Cl)cc1` [Example 1212, 4-chloro-N-[2,5-dichlorophenyl]-N-[4-[[N-(1-methylethyl)methylamino]sulfonyl]-1(R)-methylbutyl]benzenesulfonamide] the value was at most 25 nM; for `CCN(CC)S(=O)(=O)CCC[C@@H](C)N(c1cc(Cl)ccc1Cl)S(=O)(=O)c1ccc(Cl)cc1` [Example 1213, 4-chloro-N-[2,5-dichlorophenyl]-N-[4-[(diethylamino)sulfonyl]-1(R)-methylbutyl]benzenesulfonamide], at most 25 nM.
For the compound `C[C@H](CCCS(=O)(=O)NC1CCS(=O)(=O)C1)N(c1cc(Cl)ccc1Cl)S(=O)(=O)c1ccc(Cl)cc1` (stereo partly drawn) [Example 1214, 4-chloro-N-[2,5-dichlorophenyl]-N-[4-[[(tetrahydro-1,1-dioxido-3-thienyl)amino]sulfonyl]-1(R)-methylbutyl]benzenesulfonamide], the half-maximal inhibitory concentration (IC50) was at most 25 nM.
On the same count and under the same terms, for `CC(C)CNS(=O)(=O)CCC[C@@H](C)N(c1cc(Cl)ccc1Cl)S(=O)(=O)c1ccc(Cl)cc1` [Example 1216, 4-chloro-N-[2,5-dichlorophenyl]-N-[4-[(2-methylpropylamino)sulfonyl]-1(R)-methylbutyl]benzenesulfonamide] the value was 50 to 100 nM; for `C[C@H](CCCS(=O)(=O)O)N(c1cc(Cl)ccc1CO)S(=O)(=O)c1ccc(Cl)cc1` [Example 1231, (4R)-4-[N-[5-chloro-2-(hydroxymethyl)phenyl][(4-chlorophenyl)sulfonyl]amino]pentylsulfonic acid], 100 to 500 nM.
Same read-out and setting: for `CNS(=O)(=O)CCC[C@@H](C)N(c1cc(Cl)ccc1CO)S(=O)(=O)c1ccc(Cl)cc1` [Example 1233, 4-chloro-N-[5-chloro-2-(hydroxymethyl)phenyl]-N-[4-[(methylamino)sulfonyl]-1(R)-methylbutyl]benzenesulfonamide] the value was at most 25 nM.
Consider `C[C@H](CCCS(=O)(=O)N(C)C)N(c1cc(Cl)ccc1CO)S(=O)(=O)c1ccc(Cl)cc1` [Example 1234, 4-chloro-N-[5-chloro-2-(hydroxymethyl)phenyl]-N-[4-[(dimethylamino)sulfonyl]-1(R)-methylbutyl]benzenesulfonamide], for which the 50% inhibitory concentration (IC50) is at most 25 nM.
Same read-out and setting: for `C[C@H](CCCS(N)(=O)=O)N(c1cc(Cl)ccc1CO)S(=O)(=O)c1ccc(Cl)cc1` [Example 1235, 4-chloro-N-[5-chloro-2-(hydroxymethyl)phenyl]-N-[4-(aminosulfonyl)-1(R)-methylbutyl]benzenesulfonamide] the value was at most 25 nM.

Staying with this experiment, now noted: transfected H4 cells stably expressing APP constructs; approximately 16 hours incubation; amyloid β in medium by ELISA; read-out: ACTIVITY (IC50, inhibition of amyloid β production).
For the compound `C[C@H](CCCS(=O)(=O)N(C)C1CCCC1)N(c1cc(Cl)ccc1Cl)S(=O)(=O)c1ccc(Cl)cc1` [Example 1215, 4-chloro-N-[2,5-dichlorophenyl]-N-[4-[[(N-cyclopentyl)methylamino]sulfonyl]-1(R)-methylbutyl]benzenesulfonamide], the 50% inhibitory concentration (IC50) was 25 to 50 nM.
The same measure, in the same setting: for `CCS(=O)(=O)CCC[C@@H](C)N(c1cc(Cl)ccc1CO)S(=O)(=O)c1ccc(Cl)cc1` [Example 1217, 4-chloro-N-[5-chloro-2-(hydroxymethyl)phenyl]-N-[1(R)-methyl-(4-ethylsulfonyl)butyl]benzenesulfonamide] the value was at most 25 nM; for `C[C@H](CCCS(=O)(=O)C(C)(C)C)N(c1cc(Cl)ccc1CO)S(=O)(=O)c1ccc(Cl)cc1` [Example 1218], at most 25 nM; for `CC(C)[S+]([O-])CCC[C@@H](C)N(c1cc(Cl)ccc1CO)S(=O)(=O)c1ccc(Cl)cc1` (stereo partly shown) [Example 1219], at most 25 nM.
The same measure, in the same setting: for `CC(C)S(=O)(=O)CCC[C@@H](C)N(c1cc(Cl)ccc1CO)S(=O)(=O)c1ccc(Cl)cc1` [Example 1220] the value was at most 25 nM; for `C[C@H](CCC[S+]([O-])C(C)(C)C)N(c1cc(Cl)ccc1CO)S(=O)(=O)c1ccc(Cl)cc1` (stereo partly shown) [Example 1221], at most 25 nM; for `CC[S+]([O-])CCC[C@@H](C)N(c1cc(Cl)ccc1CO)S(=O)(=O)c1ccc(Cl)cc1` (stereo partly drawn) [Example 1222, 4-chloro-N-[5-chloro-2-(hydroxymethyl)phenyl]-N-[1(R)-methyl-(4-ethylsulfinyl)butyl]benzenesulfonamide], at most 25 nM.
The same measure, in the same setting: for `CC(C)SCCC[C@@H](C)N(c1cc(Cl)ccc1CO)S(=O)(=O)c1ccc(Cl)cc1` [Example 1223] the value was at most 25 nM.
In the case of `C[C@H](CCC[S+](C)[O-])N(c1cc(Cl)ccc1CO)S(=O)(=O)c1ccc(Cl)cc1` (stereo partly drawn) [Example 1224, 4-chloro-N-[5-chloro-2-(hydroxymethyl)phenyl]-N-[1(R)-methyl-(4-methylsulfinyl)butyl]benzenesulfonamide], the IC50 is at most 25 nM.
Still for that read-out and setting: for `C[C@H](CCCS(C)(=O)=O)N(c1cc(Cl)ccc1CO)S(=O)(=O)c1ccc(Cl)cc1` [Example 1225, 4-chloro-N-[5-chloro-2-(hydroxymethyl)phenyl]-N-[1(R)-methyl-(4-methylsulfonyl)butyl]benzenesulfonamide] the value was at most 25 nM; for `C[C@H](CCCSc1ccccc1)N(c1cc(Cl)ccc1CO)S(=O)(=O)c1ccc(Cl)cc1` [Example 1226, 4-chloro-N-[5-chloro-2-(hydroxymethyl)phenyl]-N-[1(R)-methyl-(4-phenylthio)butyl]benzenesulfonamide], at most 25 nM; for `CCSCCC[C@@H](C)N(c1cc(Cl)ccc1CO)S(=O)(=O)c1ccc(Cl)cc1` [Example 1227, 4-chloro-N-[5-chloro-2-(hydroxymethyl)phenyl]-N-[1(R)-methyl-(4-ethylthio)butyl]benzenesulfonamide], at most 25 nM.
Same read-out and setting: for `CSCCC[C@@H](C)N(c1cc(Cl)ccc1CO)S(=O)(=O)c1ccc(Cl)cc1` [Example 1228, 4-chloro-N-[5-chloro-2-(hydroxymethyl)phenyl]-N-[1(R)-methyl-(4-methylthio)butyl]benzenesulfonamide] the value was at most 25 nM; for `C[C@H](CCCSC(C)(C)C)N(c1cc(Cl)ccc1CO)S(=O)(=O)c1ccc(Cl)cc1` [Example 1229], at most 25 nM.
On the same count and under the same terms, for `C[C@H](CCCS(C)(=O)=O)N(c1cc(Cl)ccc1CO)S(=O)(=O)c1ccc(S(C)(=O)=O)cc1` [Example 1230] the value was 25 to 50 nM.
Turning to `CCSCCC[C@@H](C)N(c1cc(Cl)ccc1CO)S(=O)(=O)c1ccc(SCC)cc1` [Example 1232, 4-ethylthio-N-[5-chloro-2-(hydroxymethyl)phenyl]-N-[1(R)-methyl-(4-ethylthio)butyl]benzenesulfonamide], the 50% inhibitory concentration (IC50) was above 500 nM.

The values above are taken from patent US6967196B1, “Sulfonamide compounds and uses thereof” (Bristol-Myers Squibb Company, priority 1999, dated 2005).
